Experimental data taken from ChEMBL document CHEMBL1127581, “Evolution of a novel series of [(N,N-dimethylamino)propyl]- and piperazinylbenzanilides as the first selective 5-HT1D antagonists” (J Med Chem, 1994).

Experiments:
[1] = molecular target: 5-hydroxytryptamine receptor 1D (Cavia porcellus, UniProt Q60484); test: In vitro binding affinity towards 5-hydroxytryptamine 1D receptor in guinea-pig striatum in presence of BMY-7378 and mesulergine; type: tissue-based
[2] = molecular target: T1, Adrenergic receptor alpha-1 (Homo sapiens, UniProt P35348+P25100+P35368); test: Binding affinity against alpha-1 adrenoceptor; type: protein assay
T1 sequence (P35348 whole entry): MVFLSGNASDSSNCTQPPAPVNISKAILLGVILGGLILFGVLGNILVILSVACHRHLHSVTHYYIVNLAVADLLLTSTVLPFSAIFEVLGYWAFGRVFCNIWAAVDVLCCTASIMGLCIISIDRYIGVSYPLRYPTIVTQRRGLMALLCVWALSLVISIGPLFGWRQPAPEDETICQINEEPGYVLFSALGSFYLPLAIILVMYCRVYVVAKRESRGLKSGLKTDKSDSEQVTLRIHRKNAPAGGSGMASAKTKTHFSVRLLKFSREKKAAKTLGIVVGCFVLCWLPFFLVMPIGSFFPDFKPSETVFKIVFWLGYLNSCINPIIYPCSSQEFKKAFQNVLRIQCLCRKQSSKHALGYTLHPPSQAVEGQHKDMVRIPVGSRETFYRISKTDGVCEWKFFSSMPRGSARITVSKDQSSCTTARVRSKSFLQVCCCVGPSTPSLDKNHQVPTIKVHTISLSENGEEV
T1 sequence (P25100 whole entry): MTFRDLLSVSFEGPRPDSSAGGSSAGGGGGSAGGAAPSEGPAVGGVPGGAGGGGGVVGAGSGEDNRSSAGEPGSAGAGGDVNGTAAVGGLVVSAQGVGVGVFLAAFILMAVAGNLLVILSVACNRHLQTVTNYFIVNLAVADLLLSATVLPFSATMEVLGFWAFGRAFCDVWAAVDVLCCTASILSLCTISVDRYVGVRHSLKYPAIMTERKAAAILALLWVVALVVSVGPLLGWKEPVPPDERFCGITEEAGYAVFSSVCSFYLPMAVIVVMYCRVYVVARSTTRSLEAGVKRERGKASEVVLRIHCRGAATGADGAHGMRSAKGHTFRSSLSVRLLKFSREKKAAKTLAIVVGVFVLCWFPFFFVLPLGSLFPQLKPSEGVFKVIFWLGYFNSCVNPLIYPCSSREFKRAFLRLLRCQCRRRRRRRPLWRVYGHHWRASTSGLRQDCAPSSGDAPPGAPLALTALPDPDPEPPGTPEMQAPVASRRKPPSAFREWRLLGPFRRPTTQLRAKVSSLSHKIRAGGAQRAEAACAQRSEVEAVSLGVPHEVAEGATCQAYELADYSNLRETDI
T1 sequence (P35368 whole entry): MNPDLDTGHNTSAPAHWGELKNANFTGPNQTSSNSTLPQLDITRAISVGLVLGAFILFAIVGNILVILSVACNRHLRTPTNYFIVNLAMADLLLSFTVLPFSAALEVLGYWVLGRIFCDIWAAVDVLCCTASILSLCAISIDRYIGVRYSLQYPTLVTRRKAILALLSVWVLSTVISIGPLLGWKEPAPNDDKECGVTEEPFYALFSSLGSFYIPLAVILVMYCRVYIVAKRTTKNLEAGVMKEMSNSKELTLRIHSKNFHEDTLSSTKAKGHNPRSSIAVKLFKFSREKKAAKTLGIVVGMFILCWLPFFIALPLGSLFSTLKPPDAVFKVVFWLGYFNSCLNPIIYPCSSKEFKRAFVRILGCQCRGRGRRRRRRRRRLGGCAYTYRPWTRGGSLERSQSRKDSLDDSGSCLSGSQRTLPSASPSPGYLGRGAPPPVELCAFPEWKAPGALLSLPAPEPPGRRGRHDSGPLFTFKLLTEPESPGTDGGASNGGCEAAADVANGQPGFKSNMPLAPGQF

[3] = molecular target: T2, Muscarinic acetylcholine receptor M2 (Homo sapiens, UniProt P08172); test: Binding affinity against muscarinic M2 receptor
T2 sequence (P08172 whole entry): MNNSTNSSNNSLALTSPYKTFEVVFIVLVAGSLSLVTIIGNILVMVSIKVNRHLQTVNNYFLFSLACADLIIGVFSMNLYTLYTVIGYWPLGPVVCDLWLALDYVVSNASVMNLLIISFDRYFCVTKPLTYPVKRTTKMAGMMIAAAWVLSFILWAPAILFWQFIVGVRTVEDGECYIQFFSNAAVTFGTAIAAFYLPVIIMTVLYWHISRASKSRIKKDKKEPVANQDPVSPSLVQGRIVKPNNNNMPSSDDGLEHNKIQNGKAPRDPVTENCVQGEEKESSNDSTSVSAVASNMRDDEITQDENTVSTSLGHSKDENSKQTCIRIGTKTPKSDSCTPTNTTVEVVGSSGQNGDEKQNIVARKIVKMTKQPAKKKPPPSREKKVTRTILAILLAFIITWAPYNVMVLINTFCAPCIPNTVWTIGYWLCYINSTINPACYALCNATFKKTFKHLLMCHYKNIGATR

Oryctolagus cuniculus = species on record: Oryctolagus cuniculus; test: Tested in vitro for its ability to block 5-HT2A induced contraction of rabbit isolated aorta; type: functional
D(4) dopamine receptor = molecular target: T3, D(4) dopamine receptor (Homo sapiens, UniProt P21917); test: Binding affinity against dopamine D4 receptor
T3 sequence (P21917 whole entry): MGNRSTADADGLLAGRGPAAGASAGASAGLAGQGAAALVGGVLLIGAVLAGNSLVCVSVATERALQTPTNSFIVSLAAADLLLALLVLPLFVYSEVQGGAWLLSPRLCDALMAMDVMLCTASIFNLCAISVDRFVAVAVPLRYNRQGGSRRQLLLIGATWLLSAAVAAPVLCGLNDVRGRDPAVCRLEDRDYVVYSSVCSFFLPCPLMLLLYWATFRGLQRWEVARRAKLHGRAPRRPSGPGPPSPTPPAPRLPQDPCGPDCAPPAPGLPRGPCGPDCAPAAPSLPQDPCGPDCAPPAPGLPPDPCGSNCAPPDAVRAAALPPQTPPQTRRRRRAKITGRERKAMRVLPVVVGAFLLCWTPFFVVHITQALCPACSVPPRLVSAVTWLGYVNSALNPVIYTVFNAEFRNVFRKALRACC

Chain of 5-hydroxytryptamine receptor 1D (Q60484 whole entry): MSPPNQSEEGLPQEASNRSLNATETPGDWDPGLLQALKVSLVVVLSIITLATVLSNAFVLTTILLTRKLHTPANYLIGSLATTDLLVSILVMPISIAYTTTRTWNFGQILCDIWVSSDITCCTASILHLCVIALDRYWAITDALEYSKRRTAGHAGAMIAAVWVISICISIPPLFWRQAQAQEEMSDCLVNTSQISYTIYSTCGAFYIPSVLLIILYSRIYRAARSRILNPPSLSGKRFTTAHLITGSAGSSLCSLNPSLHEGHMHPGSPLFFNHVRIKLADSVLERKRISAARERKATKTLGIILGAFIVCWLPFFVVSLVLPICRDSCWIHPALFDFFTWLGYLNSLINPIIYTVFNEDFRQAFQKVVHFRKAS

Ki [1]: 3.16 nM | Log Ki [2]: > -6 | Ki [3]: > 1000 nM | Ki (D(4) dopamine receptor): > 10000 nM
SMILES: COc1ccc(NC(=O)c2ccc(-c3ccc(-c4noc(C)n4)cc3C)cc2)cc1N1CCN(C)CC1 [GR-127935]
pKB (Oryctolagus cuniculus): 6.4
